We go through 1 molecule from US20230137092A1, “Composition and Method for the Treatment and Prevention of Cardiac, Pulmonary, Dermal, and Renal Fibrosis” (EMERALD HEALTH PHARMACEUTICALS INC., priority 2020, published 2023).

For assay [1], the system named is Ang II-induced cardiac inflammation and fibrosis. Briefly: Immunohistochemistry of inflammatory and fibrotic markers (F4/80, TNC) in left ventricle, Ang II preventive model. It is filed as in vivo, mouse. As to conditions: 20 mg/kg oral, compared with Ang II untreated mice. Here is the method:
Macrophages accumulation are the hallmark of Ang II-induced fibrosis and play important roles during the inflammatory phase. Macrophage accumulation was identified by staining with a mAb that identifies F4/80^+ cells (FIG. 3). TNC is an ECM molecule that is expressed in response to injury in various tissues. Although not detectable in the normal adult heart, it was expressed under pathological conditions (FIG. 4).
Heart sections (Left ventricle) ([…]) were deparaffinized and boiled for 10 minutes in sodium citrate buffer (10 mM, pH 6.0) (Sigma-Aldrich, Madrid, Spain) for antigen retrieval. The sections were then incubated in a PBS washing buffer containing 0.1% Tween (Sigma-Aldrich, Madrid, Spain) three times for 10 minutes. The sections were incubated overnight at 4° C. with the following antibodies; for immunohistochemical detection of macrophages F4/80 antibody (1:50; MCA497, Bio-Rad) or with monoclonal anti-TNC (1:100 dilution, #MAB2138, RD system, Mineapolis, Minn., USA) were used for detection of this ECM protein. Slides were developed with diaminobenzidine chromogen (Agilent, Santa Clara, Calif., USA) and counterstained in Harris hematoxylin (Sigma-Aldrich, Madrid, Spain). Slides were photographed, digitalized using a Leica DFC420c camera and analyzed using Image J software.

In another assay the test system is E2F pathway. The experiment in a line: RNA-Seq of myocardial tissue with GSEA of MSigDb hallmarks, Ang II preventive model. In kind it is in vivo, mouse. The settings on record: cardiac RNA; Ang II-challenged mice; n=3 each group. On the procedure: RNA seq analysis from RNA extracted of myocardial tissue was performed. Transcriptome libraries were constructed with TruSeq Illumina TruSeq mRNA Sample Prep v2 kit (#RS-122-2001). In brief, 300 ng of RNA from each sample was used to construct a cDNA library, followed by sequencing on the Illumina Hiseq 2500 with single end 50 bp reads and ˜30 million reads per sample.
RNA-Seq reads were pre-processed with fastp (v0.20.0) and aligned to mouse genome assembly grcm38 using HISAT2 (v2.1.0). Then, counts per gene were obtained with featureCounts (v1.6.1) and normalization and differential expression analyses were carried out using edgeR (v3.26.8), excluding those genes with less than 15 counts across all samples. Finally, the functional analysis was performed using the functional categories defined by MSigDb hallmarks for Mus musculus (V7.0) and the clusterProfiler package (v3.12.0).
The results confirmed the hallmarks that were enriched in the Ang II group versus control group were pathways related to fibrotic response; this was the case of IFN-α and IFN-γ response, TNF-α signaling via NF-KB, Epithelial Mesenchymal Transition and inflammatory responses, including IL6 JAK STAT Signaling (FIG. 6). The results were obtained after carrying out the functional analysis of the transcriptomic signatures in heart tissue. […]

Assay [2] relates to Ang II-induced aortic fibrosis. The experiment in a line: Ang II preventive model: aorta sections, picrosirius red. In kind it is in vivo, mouse. The settings on record: Ang II two weeks, oral treatment. On the procedure:
Ang II causes myocardial fibrosis in a short period of time (Sopel M et al., 2011, Lab. Invest., 91:565-578) characterized by collagen accumulation and after 14 days of Ang II infusion (Sigusch H H et al., 1996, Cardiovascular Research, 31:546-554). […] Subcutaneous infusion of Ang II using ALZET® osmotic pumps was used to study compound preventive effects. ALZET® osmotic minipumps (Model #2004, Charles Rives, Barcelona, Spain) delivering of Ang II (1.0 mg kg^− min^−) (Sigma-Aldrich, Madrid, Spain) for two weeks. Compound treatment was daily administered in parallel, one day before of the implantation of the subcutaneous pump, beneath the mid scapular loose skin and consisted of daily oral gavage of compound (20 mg/kg) or vehicle (Corn Oil/Maisine CC, 1/1). Mice were acclimated to manipulators for a week previously to the experiments in order to reduce stress and allow the detection of subtle changes in behavior by researchers. […] Neither piloerection nor hunched appearances were appreciated during the experimental procedures. […]
(§1) Mice treated with Ang II presented an increase in the thickness of aortic media layer by collagen accumulation. […] Three-four random fields of each heart were photographed by standard brightfield microscopy and digitalized using a Leica DFC420c camera and analyzed using Fiji software (rsb.info.nih.gov/ij/).

For a further assay, the system named is hICF cells. Briefly: Real-time PCR of IL1b, IL6, Col1A2 and CCL2 mRNA in hICF. In kind it is cell-based, human. As to conditions: induced by Ang II or TGFb in hICF cells. On the procedure:
hICF (5×10^4 cells/cm^2) were preincubated with Compound of Formula (VIII), stimulated with Ang II for either 2 hours or 24 hours and total RNA was extracted using High Pure Isolation Kit (Roche Diagnostic, Switzerland). Total RNA (1 μg) was retrotranscribed using the iScript™ cDNA Synthesis Kit (Bio-Rad) and the cDNA analyzed using a CFX96 Real-Time PCR Detection System (Bio-Rad) by real-time PCR using the iQ™ SYBR Green Supermix (Bio-Rad). Human HPRT was used for in vitro studies to standardize the mRNA expression levels in each sample. Expression levels were calculated using the 2-ΔΔCt method. Compound of Formula (VIII) inhibited the mRNA expression of IL1b, IL6, Col1A2 and CCL2, induced by Ang II or TGFb in hICF cells (FIG. 17).

Assay [3] concerns Ang II-induced cardiac fibrosis. Briefly: Ang II-induced cardiac fibrosis, preventive model: collagen by Sirius red/fast green in left ventricle. In kind it is in vivo, mouse. The settings on record: vs Ang II group. On the procedure:
Ang II causes myocardial fibrosis in a short period of time (Sopel M et al., 2011, Lab. Invest., 91:565-578) characterized by collagen accumulation and after 14 days of Ang II infusion (Sigusch H H et al., 1996, Cardiovascular Research, 31:546-554). […] Subcutaneous infusion of Ang II using ALZET® osmotic pumps was used to study compound preventive effects. ALZET® osmotic minipumps (Model #2004, Charles Rives, Barcelona, Spain) delivering of Ang II (1.0 mg kg^− min^−) (Sigma-Aldrich, Madrid, Spain) for two weeks. Compound treatment was daily administered in parallel, one day before of the implantation of the subcutaneous pump, beneath the mid scapular loose skin and consisted of daily oral gavage of compound (20 mg/kg) or vehicle (Corn Oil/Maisine CC, 1/1). Mice were acclimated to manipulators for a week previously to the experiments in order to reduce stress and allow the detection of subtle changes in behavior by researchers. […]
Interstitial heart fibrosis was determined by the measurement of Sirius red/fast green staining (collagen content) (FIG. 1A). […]
as §1

Molecules are shown by their SMILES.

As to `C=C(C)C1CCC(C)=C[C@H]1C1=C(O)C(=O)C(CCCCC)=C(NCc2ccccc2)C1=O` (stereo partly shown) [Formula (VIII)], in assay [1], the “TNC marker in left ventricle (immunostaining)” value is reported as “significantly reduced” and the “infiltration of F4/80+ macrophages in myocardial tissue” value is given as “significantly reduced”. Besides, the “expression of a set of genes of E2F pathway (RNA-Seq)” value with E2F pathway is given as “clearly downregulated”. Further, in assay [2], the “thickness of aortic media layer by collagen accumulation” value is listed as “significantly alleviated”. Also, in the assay with hICF cells, the “CCL2 mRNA expression” value is listed as “inhibited”, the “Col1A2 mRNA expression” value is “inhibited”, the “IL1b mRNA expression” value is “inhibited” and the “IL6 mRNA expression” value is “inhibited”. In addition, in assay [3] (Ang II 1.0 mg kg^- min^- two weeks, 20 mg/kg daily oral gavage), the “collagen content accumulation on interstitial area of left ventricle” value is listed as “significantly (p<0.001) reduced”. Moreover, in assay [3] (Ang II two weeks, 20 mg/kg oral), the “perivascular collagen content (perivascular myocardial area)” value was “significant reduction”.
